Experimental data published in US20230159511A1, “TETRAHYDROISOQUINOLINE COMPOUNDS AS NRF2 ACTIVATORS” (C4X Discovery Limited, priority 2020, published 2023).

Target: T1, human KEAP1 (N-term, residues 321-609) (Homo sapiens, UniProt Q14145)
T1 construct: human KEAP1 (N-term, residues 321-609)
Experiment: KEAP1 Kelch Fluorescence Polarization (FP) Assay
Assay type: binding
Conditions: inhibition of Kelch domain-NRF2 interaction; 2 nM FITC-labelled NRF2 peptide, 25 nM KEAP1, 1 h room temperature; compounds below 10 nM cannot be differentiated
Description: KEAP1 Kelch Fluorescence Polarization (FP) Assay Method
Inhibition of the Kelch domain-NRF2 interaction was determined using a fluorescence polarization-based competition assay in a black 384-well microplate. Compounds were tested at a starting concentration of 10 μM serially diluted 1:3 to generate a 12-point dose response curve on the Biomek FX robot. Each well contained 2 nM FITC-labelled NRF2 peptide (FITC-LDEETGEFL-NH2) and 25 nM human KEAP1 (N-term, residues 321-609) enzyme in a final volume of 20 μL of assay buffer (50 mM Tris-HCl pH 8.0, 100 mM NaCl, 5 mM MgCl2, 0.005% Tween-20, 0.005% BSA, 0.5% DMSO) in the presence of varying concentrations of test compound. Unlabelled peptide (LDEETGEFL-NH2) at 50 μM (negative control) and 0.5% DMSO (positive control) was used to determine the assay window.
After 1 h at room temperature, fluorescence polarization (excitation 470 nm/emission 530 nm) was measured using an Envision plate reader. IC50 values were determined by fitting the data to a four parameter logistic fit using XLfit or XE Runner within ActivityBase. The assay limit is such that compounds below 10 nM cannot be differentiated.

T1 sequence (Q14145 321-609): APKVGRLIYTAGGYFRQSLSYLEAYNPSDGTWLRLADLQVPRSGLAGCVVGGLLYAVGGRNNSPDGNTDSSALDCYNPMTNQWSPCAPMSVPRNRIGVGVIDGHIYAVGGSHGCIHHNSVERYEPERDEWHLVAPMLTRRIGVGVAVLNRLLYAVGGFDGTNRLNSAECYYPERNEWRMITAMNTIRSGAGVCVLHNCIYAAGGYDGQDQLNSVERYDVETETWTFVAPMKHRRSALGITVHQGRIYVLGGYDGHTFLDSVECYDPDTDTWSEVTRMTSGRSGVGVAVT

SMILES	IC50 [µM]
CNC(=O)[C@H]1CCCC[C@H]1C(=O)N1CCc2cccc(O[C@H]3CCN(S(=O)(=O)c4cnoc4C)C3)c2[C@H]1CN1C(=O)c2ccccc2C1=O [Example 16, (1S,2R)-2-((S)-1-((1,3-dioxoisoindolin-2-yl)methyl)-8-(((S)-1-((5-methylisoxazol-4-yl)sulfonyl)pyrrolidin-3-yl)oxy)-1,2,3,4-tetrahydroisoquinoline-2-carbonyl)-N-methylcyclohexane-1-carboxamide]	0.366
CNC(=O)[C@H](C)[C@@H](C)C(=O)N1CCc2c(Cl)ccc(OCc3noc(C(C)C)n3)c2[C@H]1CN1CCCC1=O [Example 59, (2R,3R)-4-((S)-5-chloro-8-((5-isopropyl-1,2,4-oxadiazol-3-yl)methoxy)-1-((2-oxopyrrolidin-1-yl)methyl)-3,4-dihydroisoquinolin-2(1H)-yl)-N,2,3-trimethyl-4-oxobutanamide]	0.533
CNC(=O)CCCOc1cccc2c1[C@@H](CN1C(=O)c3ccccc3C1=O)N(C(=O)[C@@H]1CCCC[C@@H]1C(=O)NC)CC2 [Example 2, (1S,2R)-2-((S)-1-((1,3-dioxoisoindolin-2-yl)methyl)-8-(4-(methylamino)-4-oxobutoxy)-1,2,3,4-tetrahydroisoguinoline-2-carbonyl)-N-methylcyclohexane-1-carboxamide]	0.339
O=C(NCC(F)F)[C@H]1CCCC[C@H]1C(=O)N1CCc2cccc(O[C@H]3CCN(C(=O)c4cncs4)C3)c2[C@H]1CN1C(=O)c2ccccc2C1=O [Example 31, (1S,2R)-N-(2,2-difluoroethyl)-2-((S)-1-((1,3-dioxoisoindolin-2-yl)methyl)-8-(((S)-1-(thiazole-5-carbonyl)pyrrolidin-3-yl)oxy)-1,2,3,4-tetrahydroisoquinoline-2-carbonyl)cyclohexane-1-carboxamide]	0.539
CNC(=O)[C@H]1CCCC[C@H]1C(=O)N1CCc2cccc(O[C@H]3CCN(C(=O)c4cncs4)C3)c2[C@H]1CNC(C)=O [Example 44]	1.17
CNC(=O)[C@H]1CCCC[C@H]1C(=O)N1CCc2cccc(OCc3ccn[nH]3)c2[C@H]1CN1C(=O)c2ccccc2C1=O [Example 39, (1S,2R)-2-((S)-8-((1H-pyrazol-5-yl)methoxy)-1-((1,3-dioxoisoindolin-2-yl)methyl)-1,2,3,4-tetrahydroisoquinoline-2-carbonyl)-N-methylcyclo hexane-1-carboxamide]	3.01
COC(=O)N1CCC[C@H]1C(=O)N1CCc2cccc(O[C@H]3CCN(C(=O)c4cncs4)C3)c2[C@H]1CN1C(=O)c2ccccc2C1=O [Example 51, methyl (S)-2-((S)-1-((1,3-dioxoisoindolin-2-yl)methyl)-8-(((S)-1-(thiazole-5-carbonyl)pyrrolidin-3-yl)oxy)-1,2,3,4-tetrahydroisoquinoline-2-carbonyl)pyrrolidine-1-carboxylate]	1.7
CNC(=O)[C@H]1CCCC[C@H]1C(=O)N1CCc2c(Cl)ccc(O[C@H]3CCN(C(C)=O)C3)c2[C@H]1CN1C(=O)c2ccccc2C1=O [Example 37, (1S,2R)-2-((S)-8-(((S)-1-acetylpyrrolidin-3-yl)oxy)-5-chloro-1-((1,3-dioxoisoindolin-2-yl)methyl)-1,2,3,4-tetrahydroisoquinoline-2-carbonyl)-N-methylcyclohexane-1-carboxamide]	0.044
CNC(=O)[C@H]1CCCC[C@H]1C(=O)N1CCc2cccc(O[C@H]3CCN(C(=O)c4csc(C)n4)C3)c2[C@H]1CN1C(=O)c2ccccc2C1=O [Example 24, (1S,2R)-2-((S)-1-((1,3-dioxoisoindolin-2-yl)methyl)-8-(((S)-1-(2-methylthiazole-4-carbonyl)pyrrolidin-3-yl)oxy)-1,2,3,4-tetrahydroisoquinoline-2-carbonyl)-N-methylcyclohexane-1-carboxamide]	0.294
CNC(=O)[C@H]1CCCC[C@H]1C(=O)N1CCc2cccc(OCc3cnn(C)c3)c2[C@H]1CN1C(=O)c2ccccc2C1=O [Example 49, (1S,2R)-2-((S)-1-((1,3-dioxoisoindolin-2-yl)methyl)-8-((1-methyl-1H-pyrazol-4-yl)methoxy)-1,2,3,4-tetrahydroisoquinoline-2-carbonyl)-N-methylcyclohexane-1-carboxamide]	1.8

The remaining compounds from weak to strong by IC50, led by results:

IC50 [µM]	SMILES
2.25	CNC(=O)[C@H]1CCCC[C@H]1C(=O)N1CCc2cccc(OCc3cnco3)c2[C@H]1CN1C(=O)c2ccccc2C1=O [Example 21, (1S,2R)-2-((S)-1-((1,3-dioxoisoindolin-2-yl)methyl)-8-(oxazol-5-ylmethoxy)-1,2,3,4-tetrahydroisoquinoline-2-carbonyl)-N-methylcyclohexane-1-carboxamide]
0.31	CNC(=O)[C@H]1CCCC[C@H]1C(=O)N1CCc2cccc(O[C@H]3CCN(C(=O)c4cncs4)C3)c2[C@H]1CN1CCOC1=O [Example 45, (1S,2R)-N-methyl-2-((S)-1-((2-oxooxazolidin-3-yl)methyl)-8-(((S)-1-(thiazole-5-carbonyl)pyrrolidin-3-yl)oxy)-1,2,3,4-tetrahydroisoquinoline-2-carbonyl)cyclohexane-1-carboxamide]
0.215	COCCNC(=O)[C@H]1CCCC[C@H]1C(=O)N1CCc2cccc(O[C@H]3CCN(C(=O)c4cncs4)C3)c2[C@H]1CN1C(=O)c2ccccc2C1=O [Example 30, (1S,2R)-2-((S)-1-((1,3-dioxoisoindolin-2-yl)methyl)-8-(((S)-1-(thiazole-5-carbonyl)pyrrolidin-3-yl)oxy)-1,2,3,4-tetrahydroisoquinoline-2-carbonyl)-N-(2-methoxyethyl)cyclo-hexane-1-carboxamide]
0.196	CNC(=O)[C@H]1CCCC[C@H]1C(=O)N1CCc2cccc(O[C@H]3CCN(C(=O)C4CC4)C3)c2[C@H]1CN1C(=O)c2ccccc2C1=O [Example 19, (1S,2R)-2-((S)-8-(((S)-1-(cyclopropanecarbonyl)pyrrolidin-3-yl)oxy)-1-((1,3-dioxoisoindolin-2-yl)methyl)-1,2,3,4-tetrahydroisoquinoline-2-carbonyl)-N-methylcyclohexane-1-carboxamide]
0.196	Cc1cc(C(=O)NCCOc2cccc3c2[C@@H](CN2C(=O)c4ccccc4C2=O)N(C(=O)[C@@H]2CCCC[C@@H]2C(=O)NC2CC2)CC3)no1 [Example 7, N-(2-(((S)-2-((1R,2S)-2-(cyclopropylcarbamoyl)cyclohexane-1-carbonyl)-1-((1,3-dioxoisoindolin-2-yl)methyl)-1,2,3,4-tetrahydroisoquinolin-8-yl)oxy)ethyl)-5-methylisoxazole-3-carboxamide]
0.186	O=C(NCCCO)[C@H]1CCCC[C@H]1C(=O)N1CCc2cccc(O[C@H]3CCN(C(=O)c4cncs4)C3)c2[C@H]1CN1C(=O)c2ccccc2C1=O [Example 43, (1S,2R)-2-((S)-1-((1,3-dioxoisoindolin-2-yl)methyl)-8-(((S)-1-(thiazole-5-carbonyl)pyrrolidin-3-yl)oxy)-1,2,3,4-tetrahydroisoquinoline-2-carbonyl)-N-(3-hydroxypropyl)cyclohexane-1-carboxamide]
0.169	CNC(=O)[C@H]1CCCC[C@H]1C(=O)N1CCc2cccc(OCCNS(=O)(=O)c3cnoc3C)c2[C@H]1CN1C(=O)c2ccccc2C1=O [Example 13, (1S,2R)-2-((S)-1-((1,3-dioxoisoindolin-2-yl)methyl)-8-(2-((5-methylisoxazole)-4-sulfonamido)ethoxy)-1,2,3,4-tetrahydroisoquinoline-2-carbonyl)-N-methylcyclohexane-1-carboxamide]
0.166	CCCNC(=O)[C@H]1CCCC[C@H]1C(=O)N1CCc2cccc(O[C@H]3CCN(C(=O)c4cncs4)C3)c2[C@H]1CN1C(=O)c2ccccc2C1=O [Example 29, (1S,2R)-2-((S)-1-((1,3-dioxoisoindolin-2-yl)methyl)-8-(((S)-1-(thiazole-5-carbonyl)pyrrolidin-3-yl)oxy)-1,2,3,4-tetrahydroisoquinoline-2-carbonyl)-N-propylcyclohexane-1-carboxamide]
0.147	CNC(=O)[C@H]1CCCC[C@H]1C(=O)N1CCc2cccc(O[C@H]3CCN(C(C)=O)C3)c2[C@H]1CN1C(=O)c2ccccc2C1=O [Example 5, (1S,2R)-2-((S)-8-(((S)-1-acetylpyrrolidin-3-yl)oxy)-1-((1,3-dioxoisoindolin-2-yl)methyl)-1,2,3,4-tetrahydroisoquinoline-2-carbonyl)-N-methylcyclohexane-1-carboxamide]
0.119	Cc1cc(C(=O)NCCOc2cccc3c2[C@@H](CN2C(=O)c4ccccc4C2=O)N(C(=O)[C@@H]2CCCC[C@@H]2C(=O)NC2CCC2)CC3)no1 [Example 9, N-(2-(((S)-2-((1R,2S)-2-(cyclobutylcarbamoyl)cyclo-hexane-1-carbonyl)-1-((1,3-dioxoisoindolin-2-yl)methyl)-1,2,3,4-tetrahydroisoquinolin-8-yl)oxy)ethyl)-5-methylisoxazole-3-carboxamide]
0.032	CNC(=O)[C@H]1CCCC[C@H]1C(=O)N1CCc2cccc(O[C@H]3CCN(C(=O)c4cnc(C)s4)C3)c2[C@H]1CN1C(=O)c2ccccc2C1=O [Example 22, (1S,2R)-2-((S)-1-((1,3-dioxoisoindolin-2-yl)methyl)-8-(((S)-1-(2-methylthiazole-5-carbonyl)pyrrolidin-3-yl)oxy)-1,2,3,4-tetrahydroisoquinoline-2-carbonyl)-N-methylcyclohexane-1-carboxamide]
